Experimental data taken from ChEMBL document CHEMBL3232991, “New polyfunctional imidazo[4,5-C]pyridine motifs: synthesis, crystal studies, docking studies and antimicrobial evaluation” (Eur J Med Chem, 2014).
In brackets after ≈: the same amount, converted by molar mass. Activity calls are given as the source filed them. No cut-off for these calls is given here.

Key:
Bacillus cereus [1] = experiment: Antibacterial activity against Bacillus cereus NCIM 2155 assessed as diameter of growth inhibition zone at 500 ug/ml after 20 hrs by agar disc diffusion method; assay type: functional
Bacillus cereus [2] = experiment: Antibacterial activity against Bacillus cereus NCIM 2155 assessed as diameter of growth inhibition zone at 1000 ug/ml after 20 hrs by agar disc diffusion method; assay type: functional
Staphylococcus aureus [3] = experiment: Antibacterial activity against Staphylococcus aureus MTCC 4102 assessed as diameter of growth inhibition zone at 500 ug/ml after 20 hrs by agar disc diffusion method; assay type: functional; settings: MTCC 4102, 20 h, read-out: DIZ
Staphylococcus aureus [4] = experiment: Antibacterial activity against Staphylococcus aureus MTCC 4102 assessed as diameter of growth inhibition zone at 1000 ug/ml after 20 hrs by agar disc diffusion method; assay type: functional; settings: MTCC 4102, 20 h, read-out: DIZ
Candida albicans [5] = experiment: Antifungal activity against Candida albicans MTCC 183 assessed as diameter of growth inhibition zone at 500 ug/ml after 4 days by agar disc diffusion method; assay type: functional
Candida albicans [6] = experiment: Antifungal activity against Candida albicans MTCC 183 assessed as diameter of growth inhibition zone at 1000 ug/ml after 4 days by agar disc diffusion method; assay type: functional
Saccharomyces cerevisiae [7] = experiment: Antifungal activity against Saccharomyces cerevisiae NCIM 3044 assessed as diameter of growth inhibition zone at 500 ug/ml after 4 days by agar disc diffusion method; assay type: functional
Saccharomyces cerevisiae [8] = experiment: Antifungal activity against Saccharomyces cerevisiae NCIM 3044 assessed as diameter of growth inhibition zone at 1000 ug/ml after 4 days by agar disc diffusion method; assay type: functional
Staphylococcus aureus [9] = experiment: Antibacterial activity against Staphylococcus aureus MTCC 4102 assessed as growth inhibition after 24 hrs by broth microdilution method; assay type: functional, organism-based; settings: MTCC 4102, 24 h
Escherichia coli [10] = experiment: Antibacterial activity against Escherichia coli NCIM 2931 assessed as diameter of growth inhibition zone at 500 ug/ml after 20 hrs by agar disc diffusion method; assay type: functional; settings: NCIM 2931, 20 h, read-out: DIZ
Escherichia coli [11] = experiment: Antibacterial activity against Escherichia coli NCIM 2931 assessed as diameter of growth inhibition zone at 1000 ug/ml after 20 hrs by agar disc diffusion method; assay type: functional; settings: NCIM 2931, 20 h, read-out: DIZ
Pseudomonas aeruginosa [12] = experiment: Antibacterial activity against Pseudomonas aeruginosa MTCC 4727 assessed as diameter of growth inhibition zone at 500 ug/ml after 20 hrs by agar disc diffusion method; assay type: functional; settings: MTCC 4727, 20 h, read-out: DIZ
Pseudomonas aeruginosa [13] = experiment: Antibacterial activity against Pseudomonas aeruginosa MTCC 4727 assessed as diameter of growth inhibition zone at 1000 ug/ml after 20 hrs by agar disc diffusion method; assay type: functional; settings: MTCC 4727, 20 h, read-out: DIZ

COc1cc(-c2cnc(N3CCC(C#N)CC3)c3nc(Cc4ccc(Cl)cc4Cl)[nH]c23)ccc1F
diameter of the inhibition zone (DIZ) (Bacillus cereus [1]): inactive
diameter of the inhibition zone (DIZ) (Bacillus cereus [2]): inactive
zone of inhibition at 500 µg/mL (Staphylococcus aureus [3]): 10.5 mm
zone of inhibition at 1000 µg/mL (Staphylococcus aureus [4]): 23 mm
diameter of the inhibition zone (DIZ) (Candida albicans [5]): inactive
diameter of the inhibition zone (DIZ) (Candida albicans [6]): inactive
diameter of the inhibition zone (DIZ) (Saccharomyces cerevisiae [7]): inactive
diameter of the inhibition zone (DIZ) (Saccharomyces cerevisiae [8]): inactive
IC50 (Staphylococcus aureus [9]): 100 µg/mL (≈ 196 µM)
MIC (Staphylococcus aureus [9]): 200 µg/mL (≈ 392 µM)
zone of inhibition at 500 µg/mL (Escherichia coli [10]): 4.1 mm
zone of inhibition at 1000 µg/mL (Escherichia coli [11]): 9 mm
zone of inhibition at 500 µg/mL (Pseudomonas aeruginosa [12]): 3.5 mm
zone of inhibition at 1000 µg/mL (Pseudomonas aeruginosa [13]): 8 mm
